Measurements published in US11760784B2, “Compositions comprising PEDF-derived short peptides and uses thereof” (BRIM Biotechnology, Inc., priority 2016, dated 2023).
Entries after “also recorded” stand apart in the source; their conditions may differ.

Tests used:
[1] = system: desiccating stress-induced dry eye; experiment: Tear production by phenol red thread test in CEC dry eye mice; type: in vivo, C57BL/6 mice; details: for ability to induce tear production (alanine scanning of the 29mer): CEC dry eye mice, phenol red thread method (FIG. 9)
Protocol: (§1) Dry eye was induced by placing mice in a controlled environment chamber (CEC) as previously described (Barabino et al., 2005). Briefly, mice placed in the CEC were exposed to a relative humidity (RH)<25%, temperature of 20 to 22° C., and airflow of 15 L/min, 12 hours per day. Non-stressed (NS) mice without stress-induced dry eye were kept in a normal environment (RH >50%, no air flow, temperature of 21-23° C.) for the same duration. Corneal fluorescein staining and
Tear production was measured with phenol red-impregnated cotton threads (Zone-Quick; Oasis, Glendora, CA). The validity of this test in mice was performed as previously described (Dursun et al., 2002). The threads were held with jeweler forceps and placed in the lateral canthus for 60 seconds. The tear production is expressed in millimeters of thread that is wet by the tear and turned red.
To determine whether PDSP have therapeutic effects in a desiccating stress (DS)-induced ocular surface defects, mice were housed at controlled environment chamber (CEC) for 14 days to create ocular surface disruption. After 14 days in CEC, we used mice with fluorescence scores that are above 2 for the first experiments (FIG. 1A). […]

[2] = system: desiccating stress-induced dry eye; experiment: Corneal fluorescein staining in desiccating stress-induced dry eye (CEC) mice; type: in vivo, C57BL/6 mice; details: CEC 14 days, then peptide for 3 days (FIG. 11); listed as mouse PDSP
[3] = system: desiccating stress-induced dry eye; experiment: as above; type: in vivo, C57BL/6 mice; details: therapeutic: CEC 14 days to induce dry eye, then peptide on the eyes for 5 days
Protocol: In an animal model for dry eye diseases, mice were placed in a controlled environment chamber (CEC) to induce dry eyes as previously described (Barabino et al., 2005). Mice placed in the CEC were exposed to a relative humidity (RH)<25%, temperature of 20 to 22° C., with an airflow of 15 L/min, 12 hours per day. Non-Stressed mice were kept in a normal environment (RH >50%, no air flow, temperature of 21-23° C.) for the same duration. After 14 days, non-stressed mice were treated with vehicle, while the stressed mice were treated with either a test peptide (e.g., the 29mer PDSP) or vehicle solution (Vehicle group) for 5 days. Then, the cornea was examined with fluorescein staining.
Seven to 8-week-old female C57BL/6 mice were used for these experiments. Experimental procedures were approved by the Mackay Memorial Hospital Review Board and conducted according to the ARVO Statement for the Use of Animals in Ophthalmic and Vision Research.
as §1
Animals were anesthetized by an intraperitoneal injection of a mixture of zoletil (6 mg/kg) and xylazine (3 mg/kg). Corneal epithelial injury was determined by staining with topical fluorescein (Fluor-I-Strip, Ayerst Laboratories, Philadelphia, Pa.). Corneal fluorescein staining was examined with a slit-lamp biomicroscope under cobalt blue light and photographed with a digital camera. Dye staining of the cornea was scored in a manner as follows: score 0 for no punctuate staining; score 1 when less than one third of the cornea was stained; score 2 when two thirds or less was stained; and score 3 when more than two thirds was stained (Horwath-Winter J 2013).
To determine whether PDSP have therapeutic effects in a desiccating stress (DS)-induced ocular surface defects, mice were housed at controlled environment chamber (CEC) for 14 days to create ocular surface disruption. After 14 days in CEC, we used mice with fluorescence scores that are above 2 for the first experiments (FIG. 1A). Subsequently, dry eyes were treated topically with PDSP at 25-200 μM (3 times/day) or PDSP vehicle (1% CMC in BSS) for another 5 days while maintaining the same desiccating stress protocol.
To investigate whether the PDSP can suppress DS-induced corneal epithelial disruption, we applied the 14-day desiccating stress protocol to mice, and treated these mice topically with PDSP 3 times a day.

C2C12 cells = experiment: Cell viability of C2C12 cells in culture (MTT assay), alanine scanning; type: cell-based; details: C2C12 cell cultures (FIG. 10)
Protocol: This was tested with cell viability in cell cultures. […] Cell viability may be assessed with staining and cell number counts or with MTT assays. These techniques are well known in the art.

Q: With “moPDSP 29mer: corresponding mouse sequence SLGAEHRTESVIHRALYYDLITNPDIHST (SEQ ID NO:5) (listed as Mus musculus)” as the substance, how does the “tear production (phenol red thread), human vs mouse PDSP” value ([1]; CEC 14 days, then peptide for 3 days (FIG. 12), listed as mouse PDSP) read?
A: The value was “capable of restore; also recorded: improved tear productions to the same extent”.

Q: What about the “corneal damage by corneal fluorescein staining, human vs mouse 29mer” value [2] of the same substance?
A: The value was “capable of restore the ocular surface damages”.

Q: For “Q98A: human PDSP 29mer with alanine substitution at residue 6 (Q98) (SLGAEARTESIIHRALYYDLISSPDIHGT; UniProt P36955 93-121, looked up, variant Q98A)”, which “corneal surface damage by fluorescein staining” value (“corneal surface damage” for short) [3] is on record?
A: Its value is “substantial loss of PDSP activity”.

Q: And the “ability to sustain/enhance viabilities of the cells (alanine scanning of the 29mer)” value (from here on “ability to sustain/enhance viabilities”) (C2C12 cells)?
A: The value was “substantially abolished”.

Q: And the “ability to induce tear production (alanine scanning of the 29mer)” value (shortened to “ability to induce tear production”) [1]?
A: The value was “substantial losses of abilities of PDSP to induce tear production”.

Q: Which “corneal surface damage” value [3] does the source give for “I104A: human PDSP 29mer with alanine substitution at residue 12 (I104) (SLGAEQRTESIAHRALYYDLISSPDIHGT; UniProt P36955 93-121, looked up, variant I104A)” here?
A: Its value is “substantial loss of PDSP activity”.

Q: And the “ability to sustain/enhance viabilities” value (C2C12 cells)?
A: The value was “substantially abolished”.

Q: What about the “ability to induce tear production” value [1] of the same substance?
A: Its value is “substantial losses of abilities of PDSP to induce tear production”.

Q: For “R106A: human PDSP 29mer with alanine substitution at residue 14 (R106) (SLGAEQRTESIIHAALYYDLISSPDIHGT; UniProt P36955 93-121, looked up, variant R106A)”, which “corneal surface damage” value [3] is on record?
A: Its value is “substantial loss of PDSP activity”.

Q: What about the “ability to sustain/enhance viabilities” value (C2C12 cells) of the same substance?
A: The value was “substantially abolished”.

Q: And the “ability to induce tear production” value [1]?
A: Its value is “substantial losses of abilities of PDSP to induce tear production”.

Q: “A96G: human PDSP 29mer with glycine substitution at residue 4 (A96) (Ac-SLGGEQRTESIIHRALYYDLISSPDIHGT-NH2; UniProt P36955 93-121, looked up, variant A96G)” was tested. Which “corneal surface damage” value [3] did it give?
A: The value was “substantial loss of PDSP activity”.

Q: And the “ability to sustain/enhance viabilities” value (C2C12 cells)?
A: Its value is “substantially abolished”.

Q: And the “ability to induce tear production” value [1]?
A: Its value is “substantial losses of abilities of PDSP to induce tear production”.
